According to PubChem BioAssay AID256 (DTP/NCI, 2004):
Where “and” joins values, the source holds several entries; their conditions need not be identical. Identical values can stand only once. Toxic doses and inconclusive results are not listed. Non-standard residues stand in square brackets, D forms with d. Residues, ends and D or L forms follow the SMILES beside them. ξ: configuration not given here. *: point of attachment. Cbz = O=C(OCc1ccccc1)*; ξI = CCC(C)C(N)C(=O)O; ξP = O=C(O)C1CCCN1

Tested on: CD2F1 mice, L1210 leukemia ip, survival T/C
Assay: NCI In Vivo Anticancer Drug Screen. Data for tumor model L1210 Leukemia (intraperitoneal) in CD2F1 (CDF1) mice
Details: higher = longer survival
In short: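 Implant tumor; dose compound or vehicle; measure endpoint in both groups; report treated divided by control.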

[1] = endpoint: median survival time, dose: 6.25 mg/kg/injection, schedule: Q01DX009 (ip), vehicle: Klucel (hydroxypropylcellulose) (HPC)
[2] = endpoint: median survival time, dose: 12.5 mg/kg/injection, schedule: Q01DX009 (ip), vehicle: Klucel (hydroxypropylcellulose) (HPC)
[3] = endpoint: median survival time, dose: 25.0 mg/kg/injection, schedule: Q01DX009 (ip), vehicle: Klucel (hydroxypropylcellulose) (HPC)
[4] = endpoint: mean survival time, dose: 100.0 mg/kg/injection, schedule: Q04DX003 (ip), vehicle: saline with Tween-80
[5] = endpoint: mean survival time, dose: 200.0 mg/kg/injection, schedule: Q04DX003 (ip), vehicle: saline with Tween-80
[6] = endpoint: mean survival time, dose: 400.0 mg/kg/injection, schedule: Q04DX003 (ip), vehicle: saline with Tween-80
[7] = endpoint: mean survival time, dose: 200.0 mg/kg/injection, schedule: Q01DX009 (ip), vehicle: saline with Tween-80
[8] = endpoint: mean survival time, dose: 400.0 mg/kg/injection, schedule: Q01DX009 (ip), vehicle: saline with Tween-80
[9] = endpoint: mean survival time, dose: 100.0 mg/kg/injection, schedule: Q04DX002 (ip), vehicle: saline with Tween-80
[10] = endpoint: mean survival time, dose: 200.0 mg/kg/injection, schedule: Q04DX002 (ip), vehicle: saline with Tween-80
[11] = endpoint: mean survival time, dose: 400.0 mg/kg/injection, schedule: Q04DX002 (ip), vehicle: saline with Tween-80
[12] = endpoint: mean survival time, dose: 100.0 mg/kg/injection, schedule: Q01DX001 (ip), vehicle: saline with Tween-80
[13] = endpoint: mean survival time, dose: 400.0 mg/kg/injection, schedule: Q01DX001 (ip), vehicle: saline with Tween-80
[14] = endpoint: mean survival time, dose: 200.0 mg/kg/injection, schedule: Q01DX001 (ip), vehicle: saline with Tween-80
[15] = endpoint: mean survival time, dose: 100.0 mg/kg/injection, schedule: Q01DX009 (ip), vehicle: saline with Tween-80

Compound: COC1=C(NC(C)=O)C(=O)c2nc(-c3nc(C(=O)O)c(C)c(-c4ccc(OC)c(OC)c4O)c3N)ccc2C1=O
- T/C [1]: 106 % of control
- T/C [2]: 108 % of control
- T/C [3]: 104 % of control
- T/C (endpoint: median survival time, dose: 50.0 mg/kg/injection, schedule: Q01DX009 (ip), vehicle: Klucel (hydroxypropylcellulose) (HPC)): 107 % of control
- T/C (endpoint: median survival time, dose: 100.0 mg/kg/injection, schedule: Q01DX009 (ip), vehicle: Klucel (hydroxypropylcellulose) (HPC)): 109 % of control
- T/C (endpoint: median survival time, dose: 200.0 mg/kg/injection, schedule: Q01DX009 (ip), vehicle: Klucel (hydroxypropylcellulose) (HPC)): 109 % of control

Compound: [Cl][Pt+2][Cl].[NH-]CC(=O)O.[NH-]CC(=O)O
- T/C (endpoint: mean survival time, dose: 12.5 mg/kg/injection, schedule: Q01DX009 (ip), vehicle: saline): 96 % of control
- T/C (endpoint: mean survival time, dose: 25.0 mg/kg/injection, schedule: Q01DX009 (ip), vehicle: saline): 101 % of control
- T/C (endpoint: mean survival time, dose: 50.0 mg/kg/injection, schedule: Q01DX009 (ip), vehicle: saline): 108 % of control
- T/C (endpoint: mean survival time, dose: 100.0 mg/kg/injection, schedule: Q01DX009 (ip), vehicle: saline): 98 % of control
- T/C (endpoint: mean survival time, dose: 200.0 mg/kg/injection, schedule: Q01DX009 (ip), vehicle: saline): 96 % of control

Compound: Cc1cc2n[se]nc2cc1C
- T/C (endpoint: median survival time, dose: 3.12 mg/kg/injection, schedule: Q01DX009 (ip), vehicle: Klucel (hydroxypropylcellulose) (HPC)): 94 % of control
- T/C [1]: 95 % of control
- T/C [2]: 98 % of control
- T/C [3]: 101 % of control

Compound: NC1CC(=O)C(CC2C(=O)CC(N)CC2=O)C(=O)C1 (stereo unspecified)
- T/C [4]: 102 % of control
- T/C [5]: 101 % of control
- T/C [6]: 98 % of control

Compound: O=C(CNC(=O)OCc1ccccc1)NCC(=O)N1CCCC1C(=O)O (stereo not drawn) (Cbz-Gly-Gly-[ξP]-OH)
- T/C (endpoint: mean survival time, dose: 100.0 mg/kg/injection, schedule: Q04DX003 (ip), vehicle: saline): 98 % of control
- T/C (endpoint: mean survival time, dose: 200.0 mg/kg/injection, schedule: Q04DX003 (ip), vehicle: saline): 96 % of control
- T/C (endpoint: mean survival time, dose: 400.0 mg/kg/injection, schedule: Q04DX003 (ip), vehicle: saline): 101 % of control

Compound: O=C1CCc2cccc3cccc(c23)N1
- T/C [4]: 98 % of control
- T/C [5]: 98 % of control
- T/C [6]: 90 % of control

Compound: O=C(CNC(=O)Nc1ccc(F)cc1)NNC(=O)Nc1ccc(Cl)c([N+](=O)[O-])c1
- T/C [7]: 92 % of control
- T/C [8]: 88 % of control

Compound: CC(C)(CCC(=S)N1CCOCC1)C1CCCCC1
- T/C [4]: 97 % of control
- T/C [5]: 96 % of control
- T/C [6]: 97 % of control

Compound: O=c1c2cccc3cccc(c32)c2c3c(nn12)CCCC3
- T/C (endpoint: mean survival time, dose: 12.5 mg/kg/injection, schedule: Q04DX002 (ip), vehicle: saline with Tween-80): 102 % of control
- T/C (endpoint: mean survival time, dose: 25.0 mg/kg/injection, schedule: Q04DX002 (ip), vehicle: saline with Tween-80): 98 % of control
- T/C (endpoint: mean survival time, dose: 50.0 mg/kg/injection, schedule: Q04DX002 (ip), vehicle: saline with Tween-80): 94 % of control

Compound: O=C(/C=C/c1ccccc1)SCc1ccccc1
- T/C [4]: 96 % of control
- T/C [5]: 98 % of control
- T/C [6]: 94 % of control

Compound: COc1ccccc1/C=N/NC(=O)c1ccccc1
- T/C (endpoint: mean survival time, dose: 100.0 mg/kg/injection, schedule: Q01DX009 (ip), vehicle: Klucel (hydroxypropylcellulose) (HPC)): 102 % of control
- T/C (endpoint: mean survival time, dose: 100.0 mg/kg/injection, schedule: Q04DX003 (ip), vehicle: Klucel (hydroxypropylcellulose) (HPC)): 91 % of control
- T/C (endpoint: mean survival time, dose: 200.0 mg/kg/injection, schedule: Q01DX009 (ip), vehicle: Klucel (hydroxypropylcellulose) (HPC)): 96 % of control
- T/C (endpoint: mean survival time, dose: 200.0 mg/kg/injection, schedule: Q04DX003 (ip), vehicle: Klucel (hydroxypropylcellulose) (HPC)): 96 % of control
- T/C (endpoint: mean survival time, dose: 400.0 mg/kg/injection, schedule: Q01DX009 (ip), vehicle: Klucel (hydroxypropylcellulose) (HPC)): 108 % of control
- T/C (endpoint: mean survival time, dose: 400.0 mg/kg/injection, schedule: Q04DX003 (ip), vehicle: Klucel (hydroxypropylcellulose) (HPC)): 94 % of control

Compound: NC(N)=N/N=C/c1ccc(Cl)cc1Cl
- T/C (endpoint: mean survival time, dose: 8.0 mg/kg/injection, schedule: Q01DX Z (ip), vehicle: saline): 88 % of control
- T/C (endpoint: mean survival time, dose: 16.0 mg/kg/injection, schedule: Q01DX Z (ip), vehicle: saline): 96 % of control
- T/C (endpoint: mean survival time, dose: 31.0 mg/kg/injection, schedule: Q01DX Z (ip), vehicle: saline): 92 % of control
- T/C (endpoint: mean survival time, dose: 62.0 mg/kg/injection, schedule: Q01DX Z (ip), vehicle: saline): 95 % of control

Compound: COc1cccc(/C=N/C(=S)NC2(C)C3CCC(C3)C2(C)C)c1O (stereo unspecified)
- T/C (endpoint: mean survival time, dose: 12.5 mg/kg/injection, schedule: Q01DX009 (ip), vehicle: olive oil, sesame oil, peanut oil): 98 % of control
- T/C (endpoint: mean survival time, dose: 25.0 mg/kg/injection, schedule: Q01DX009 (ip), vehicle: olive oil, sesame oil, peanut oil): 96 % of control
- T/C (endpoint: mean survival time, dose: 50.0 mg/kg/injection, schedule: Q01DX009 (ip), vehicle: olive oil, sesame oil, peanut oil): 90 % of control
- T/C (endpoint: mean survival time, dose: 100.0 mg/kg/injection, schedule: Q01DX009 (ip), vehicle: olive oil, sesame oil, peanut oil): 97 % of control
- T/C (endpoint: mean survival time, dose: 200.0 mg/kg/injection, schedule: Q01DX009 (ip), vehicle: olive oil, sesame oil, peanut oil): 96 % of control
- T/C (endpoint: mean survival time, dose: 400.0 mg/kg/injection, schedule: Q01DX009 (ip), vehicle: olive oil, sesame oil, peanut oil): 90 % of control

Compound: CCOC(=O)CCC(NC(=O)c1ccccc1NC)C(=O)OCC (stereo unspecified)
- T/C [4]: 101 % of control
- T/C [5]: 101 % of control
- T/C [6]: 103 % of control

Compound: CCOC(=O)/C=C1/C=C(C)CC(C)(C)C1 (tested in a mixture with another compound)
- T/C [9]: 98 % of control
- T/C [10]: 91 % of control
- T/C [11]: 87 % of control

Compound: O=C1C2C(c3ccccc3)=C(c3ccccc3)C1[C@@]1(c3ccccc3)C(c3ccccc3)=CC(=O)[C@@H]21 (stereo partly specified)
- T/C [12]: 87 % of control
- T/C [13]: 89 % of control

Compound: CCC[CH2][Sn]1([CH2]CCC)[O]OC(c2ccc(C(=O)OCC)cc2)[O]1 (stereo unspecified)
- T/C (endpoint: mean survival time, dose: 1.56 mg/kg/injection, schedule: Q04DX002 (ip), vehicle: other): 101 % of control
- T/C (endpoint: mean survival time, dose: 3.13 mg/kg/injection, schedule: Q04DX002 (ip), vehicle: other): 116 % of control

Compound: CC(C)(C[NH-])C[NH-].[Cl][Pt+2]([Cl])([Cl])[Cl]
- T/C (endpoint: median survival time, dose: 0.2 mg/kg/injection, schedule: Q04DX003 (ip), vehicle: water): 116 % of control and 111 % of control
- T/C (endpoint: median survival time, dose: 0.4 mg/kg/injection, schedule: Q04DX003 (ip), vehicle: water): 116 % of control and 124 % of control
- T/C (endpoint: median survival time, dose: 1.6 mg/kg/injection, schedule: Q04DX003 (ip), vehicle: water): 151 % of control and 186 % of control and 228 % of control
- T/C (endpoint: median survival time, dose: 3.12 mg/kg/injection, schedule: Q04DX003 (ip), vehicle: distilled water + Tween-80): 123 % of control

Compound: Nc1ccc(N=Nc2ccc(N(CCCl)CCCl)cc2)cc1
- T/C (endpoint: mean survival time, dose: 33.0 mg/kg/injection, schedule: Q01DX001 (ip), vehicle: Klucel (hydroxypropylcellulose) (HPC)): 96 % of control
- T/C (endpoint: mean survival time, dose: 66.0 mg/kg/injection, schedule: Q01DX001 (ip), vehicle: Klucel (hydroxypropylcellulose) (HPC)): 91 % of control
- T/C (endpoint: mean survival time, dose: 132.0 mg/kg/injection, schedule: Q01DX001 (ip), vehicle: Klucel (hydroxypropylcellulose) (HPC)): 91 % of control

Compound: C=CCCCCCCCCC(=O)NC(C)COC (stereo unspecified)
- T/C [12]: 107 % of control
- T/C [14]: 98 % of control

Compound: COC(=O)C1(C(=O)OC)CCCCC1=O
- T/C [15]: 98 % of control
- T/C [4]: 97 % of control
- T/C [7]: 95 % of control
- T/C [5]: 94 % of control
- T/C [8]: 95 % of control
- T/C [6]: 89 % of control

Compound: Nc1nc(N)c2nc3c4ccccc4c4ccccc4c3nc2n1
- T/C [12]: 95 % of control
- T/C [15]: 93 % of control
- T/C [14]: 91 % of control
- T/C [13]: 97 % of control

Compound: CCC(C)C(NC(=O)CN)C(=O)O (stereo unspecified) (H-Gly-[ξI]-OH)
- T/C [9]: 100 % of control
- T/C (endpoint: mean survival time, dose: 100.0 mg/kg/injection, schedule: Q04DX002 (ip), vehicle: saline): 94 % of control
- T/C [10]: 103 % of control
- T/C (endpoint: mean survival time, dose: 200.0 mg/kg/injection, schedule: Q04DX002 (ip), vehicle: saline): 90 % of control
- T/C [11]: 95 % of control
- T/C (endpoint: mean survival time, dose: 400.0 mg/kg/injection, schedule: Q04DX002 (ip), vehicle: saline): 101 % of control
